Experimental data published in the NIST ThermoML archive (doi:10.1016/j.jct.2006.10.017).
± gives the expanded uncertainty stated by the source.

Legend:
[1] = xn = mol fraction of the nth substance listed; conditions: 101 kPa, Liquid
[2] = refractive index (Na D-line) (dimensionless); xn = mol fraction of the nth substance listed; conditions: 101 kPa, Liquid

CCCCCCCC[n+]1ccn(C)c1.F[P-](F)(F)(F)(F)F [1-octyl-3-methylimidazolium hexafluorophosphate] + CCO
Conditions | mass density, 293.15 K [kg/m3] | mass density, 298.15 K [kg/m3] | mass density, 303.15 K [kg/m3] | refractive index, 293.15 K | refractive index, 298.15 K | refractive index, 303.15 K | speed of sound, 293.15 K [m/s] | speed of sound, 298.15 K [m/s] | speed of sound, 303.15 K [m/s]
[1], x1 = 0.0447 | 873.9 ± 0.7 | 869.7 ± 0.7 | 865.4 ± 0.8 | – | – | – | 1180 ± 10 | 1165 ± 10 | 1151 ± 10
[1], x1 = 0.0982 | 946.5 ± 0.5 | 942.3 ± 0.5 | 938.1 ± 0.5 | – | – | – | 1206 ± 10 | 1193 ± 10 | 1180 ± 10
[1], x1 = 0.1976 | 1035.8 ± 0.5 | 1031.7 ± 0.5 | 1027.5 ± 0.5 | – | – | – | 1257 ± 10 | 1245 ± 10 | 1233 ± 10
[1], x1 = 0.2897 | 1089.5 ± 0.7 | 1085.3 ± 0.6 | 1081.1 ± 0.6 | – | – | – | 1295 ± 11 | 1283 ± 10 | 1271 ± 10
[1], x1 = 0.3897 | 1130.4 ± 0.9 | 1126.3 ± 0.9 | 1122.2 ± 0.8 | – | – | – | 1327 ± 11 | 1315 ± 11 | 1303 ± 11
[1], x1 = 0.499 | 1162.8 ± 1.1 | 1158.8 ± 1.1 | 1154.8 ± 1.1 | – | – | – | 1352 ± 11 | 1340 ± 11 | 1328 ± 11
[1], x1 = 0.5896 | 1183.2 ± 1.3 | 1179.3 ± 1.3 | 1175.3 ± 1.2 | – | – | – | 1369 ± 11 | 1357 ± 11 | 1344 ± 11
[1], x1 = 0.708 | 1204.3 ± 1.5 | 1200.4 ± 1.5 | 1196.5 ± 1.5 | – | – | – | 1386 ± 11 | 1373 ± 11 | 1360 ± 11
[1], x1 = 0.8037 | 1217.9 ± 1.7 | 1214 ± 1.7 | 1210.2 ± 1.7 | – | – | – | 1398 ± 11 | 1385 ± 11 | 1372 ± 11
[1], x1 = 0.904 | 1229.9 ± 2 | 1226 ± 2 | 1222.2 ± 1.9 | – | – | – | 1411 ± 11 | 1397 ± 11 | 1383 ± 11
[1], x1 = 0.9502 | 1234.7 ± 2.1 | 1230.9 ± 2.1 | 1227.1 ± 2.1 | – | – | – | 1416 ± 11 | 1401 ± 11 | 1387 ± 11
[1], x1 = 1 | 1239.6 ± 2.2 | 1235.7 ± 2.2 | 1231.9 ± 2.2 | – | – | – | 1424 ± 11 | 1408 ± 11 | 1393 ± 11
[2], x1 = 0.0447 | – | – | – | 1.37484 ± 0.0012 | 1.37299 ± 0.0013 | 1.37124 ± 0.0014 | – | – | –
[2], x1 = 0.0982 | – | – | – | 1.38484 ± 0.0012 | 1.38315 ± 0.0013 | 1.38286 ± 0.0013 | – | – | –
[2], x1 = 0.1976 | – | – | – | 1.3975 ± 0.0012 | 1.3959 ± 0.0013 | 1.39478 ± 0.0013 | – | – | –
[2], x1 = 0.2897 | – | – | – | 1.40449 ± 0.0013 | 1.40291 ± 0.0013 | 1.40181 ± 0.0013 | – | – | –
[2], x1 = 0.3897 | – | – | – | 1.41009 ± 0.0013 | 1.40855 ± 0.0013 | 1.40752 ± 0.0013 | – | – | –
[2], x1 = 0.499 | – | – | – | 1.41448 ± 0.0013 | 1.41289 ± 0.0013 | 1.41174 ± 0.0013 | – | – | –
[2], x1 = 0.5896 | – | – | – | 1.41703 ± 0.0013 | 1.41553 ± 0.0013 | 1.41412 ± 0.0013 | – | – | –
[2], x1 = 0.708 | – | – | – | 1.41965 ± 0.0013 | 1.41817 ± 0.0013 | 1.41682 ± 0.0013 | – | – | –
[2], x1 = 0.8037 | – | – | – | 1.4215 ± 0.0013 | 1.42004 ± 0.0013 | 1.41858 ± 0.0013 | – | – | –
[2], x1 = 0.904 | – | – | – | 1.42304 ± 0.0013 | 1.42165 ± 0.0013 | 1.42026 ± 0.0013 | – | – | –
[2], x1 = 0.9502 | – | – | – | 1.42375 ± 0.0013 | 1.42231 ± 0.0013 | 1.42112 ± 0.0013 | – | – | –
[2], x1 = 1 | – | – | – | 1.4244 ± 0.0013 | 1.42302 ± 0.0013 | 1.42165 ± 0.0013 | – | – | –

CCO [ethanol] + CCCCCCn1cc[n+](C)c1.F[P-](F)(F)(F)(F)F
x2 = 0
Conditions | mass density, 293.15 K [kg/m3] | mass density, 298.15 K [kg/m3] | mass density, 303.15 K [kg/m3] | refractive index, 293.15 K | refractive index, 298.15 K | refractive index, 303.15 K | speed of sound, 293.15 K [m/s] | speed of sound, 298.15 K [m/s] | speed of sound, 303.15 K [m/s]
[1] | 789.3 ± 0.9 | 785.1 ± 0.9 | 780.7 ± 0.9 | – | – | – | 1160 ± 10 | 1143 ± 10 | 1127 ± 9
[2] | – | – | – | 1.36138 ± 0.0013 | 1.35929 ± 0.0013 | 1.35725 ± 0.0013 | – | – | –

CCO [ethanol] + CCCCn1cc[n+](C)c1.COS(=O)(=O)[O-]
x2 = 0
Conditions | mass density, 293.15 K [kg/m3] | mass density, 298.15 K [kg/m3] | mass density, 303.15 K [kg/m3] | refractive index, 293.15 K | refractive index, 298.15 K | refractive index, 303.15 K | speed of sound, 293.15 K [m/s] | speed of sound, 298.15 K [m/s] | speed of sound, 303.15 K [m/s]
[1] | 789.3 ± 0.9 | 785.1 ± 0.9 | 780.7 ± 0.9 | – | – | – | 1160 ± 10 | 1143 ± 10 | 1127 ± 9
[2] | – | – | – | 1.36138 ± 0.0013 | 1.35929 ± 0.0013 | 1.35725 ± 0.0013 | – | – | –

COS(=O)(=O)[O-].Cn1cc[n+](C)c1 [1,3-dimethylimidazolium methylsulfate] + CCO
Conditions | mass density, 293.15 K [kg/m3] | mass density, 298.15 K [kg/m3] | mass density, 303.15 K [kg/m3] | refractive index, 293.15 K | refractive index, 298.15 K | refractive index, 303.15 K | speed of sound, 293.15 K [m/s] | speed of sound, 298.15 K [m/s] | speed of sound, 303.15 K [m/s]
[1], x1 = 0.0738 | 891.5 ± 0.7 | 887.4 ± 0.7 | 883.3 ± 0.7 | – | – | – | 1241 ± 10 | 1226 ± 10 | 1211 ± 10
[1], x1 = 0.1356 | 959.7 ± 0.5 | 955.7 ± 0.5 | 951.7 ± 0.5 | – | – | – | 1305 ± 11 | 1291 ± 11 | 1277 ± 10
[1], x1 = 0.2275 | 1040.6 ± 0.5 | 1036.7 ± 0.5 | 1032.8 ± 0.5 | – | – | – | 1396 ± 11 | 1383 ± 11 | 1370 ± 11
[1], x1 = 0.3317 | 1111.6 ± 0.8 | 1107.8 ± 0.8 | 1104 ± 0.7 | – | – | – | 1490 ± 12 | 1477 ± 12 | 1465 ± 12
[1], x1 = 0.429 | 1163.9 ± 1 | 1160.2 ± 1 | 1156.5 ± 1 | – | – | – | 1568 ± 12 | 1555 ± 12 | 1542 ± 12
[1], x1 = 0.5395 | 1211.1 ± 1.3 | 1207.5 ± 1.3 | 1203.8 ± 1.3 | – | – | – | 1642 ± 13 | 1629 ± 13 | 1617 ± 13
[1], x1 = 0.6331 | 1243.6 ± 1.6 | 1239.9 ± 1.6 | 1236.3 ± 1.5 | – | – | – | 1693 ± 13 | 1681 ± 13 | 1668 ± 13
[1], x1 = 0.7308 | 1272 ± 1.8 | 1268.4 ± 1.8 | 1264.8 ± 1.8 | – | – | – | 1737 ± 13 | 1725 ± 13 | 1713 ± 13
[1], x1 = 0.8142 | 1293 ± 2.1 | 1289.3 ± 2.1 | 1285.7 ± 2.1 | – | – | – | 1769 ± 14 | 1757 ± 13 | 1745 ± 13
[1], x1 = 0.9081 | 1313.3 ± 2.4 | 1309.7 ± 2.4 | 1306.1 ± 2.4 | – | – | – | 1800 ± 14 | 1787 ± 14 | 1775 ± 14
[1], x1 = 0.9512 | 1321.7 ± 2.5 | 1318.1 ± 2.5 | 1314.5 ± 2.5 | – | – | – | 1812 ± 14 | 1800 ± 14 | 1788 ± 14
[1], x1 = 1 | 1330.9 ± 2.7 | 1327.2 ± 2.7 | 1323.7 ± 2.7 | – | – | – | 1826 ± 14 | 1813 ± 14 | 1801 ± 14
[2], x1 = 0.0738 | – | – | – | 1.3881 ± 0.0013 | 1.38734 ± 0.0013 | 1.38689 ± 0.0014 | – | – | –
[2], x1 = 0.1356 | – | – | – | 1.40426 ± 0.0013 | 1.40398 ± 0.0013 | 1.40322 ± 0.0013 | – | – | –
[2], x1 = 0.2275 | – | – | – | 1.42272 ± 0.0013 | 1.42173 ± 0.0013 | 1.42109 ± 0.0013 | – | – | –
[2], x1 = 0.3317 | – | – | – | 1.43794 ± 0.0013 | 1.43648 ± 0.0013 | 1.4356 ± 0.0013 | – | – | –
[2], x1 = 0.429 | – | – | – | 1.44915 ± 0.0013 | 1.44761 ± 0.0013 | 1.44677 ± 0.0013 | – | – | –
[2], x1 = 0.5395 | – | – | – | 1.45944 ± 0.0013 | 1.45819 ± 0.0013 | 1.45699 ± 0.0013 | – | – | –
[2], x1 = 0.6331 | – | – | – | 1.4665 ± 0.0013 | 1.4651 ± 0.0013 | 1.46385 ± 0.0013 | – | – | –
[2], x1 = 0.7308 | – | – | – | 1.472 ± 0.0013 | 1.47068 ± 0.0013 | 1.4694 ± 0.0013 | – | – | –
[2], x1 = 0.8142 | – | – | – | 1.47624 ± 0.0013 | 1.47489 ± 0.0013 | 1.47353 ± 0.0013 | – | – | –
[2], x1 = 0.9081 | – | – | – | 1.48029 ± 0.0013 | 1.47895 ± 0.0013 | 1.47763 ± 0.0013 | – | – | –
[2], x1 = 0.9512 | – | – | – | 1.48211 ± 0.0013 | 1.48079 ± 0.0013 | 1.47949 ± 0.0013 | – | – | –
[2], x1 = 1 | – | – | – | 1.48392 ± 0.0013 | 1.4827 ± 0.0013 | 1.48129 ± 0.0013 | – | – | –

CCO [ethanol] + COS(=O)(=O)[O-].Cn1cc[n+](C)c1
x2 = 0
Conditions | mass density, 293.15 K [kg/m3] | mass density, 298.15 K [kg/m3] | mass density, 303.15 K [kg/m3] | refractive index, 293.15 K | refractive index, 298.15 K | refractive index, 303.15 K | speed of sound, 293.15 K [m/s] | speed of sound, 298.15 K [m/s] | speed of sound, 303.15 K [m/s]
[1] | 789.3 ± 0.9 | 785.1 ± 0.9 | 780.7 ± 0.9 | – | – | – | 1160 ± 10 | 1143 ± 10 | 1127 ± 9
[2] | – | – | – | 1.36138 ± 0.0013 | 1.35929 ± 0.0013 | 1.35725 ± 0.0013 | – | – | –
